Data on 88 compounds can be found in a melting point compilation (Tetko et al.; mined from patent text by program, amines drawn as free bases though some values may be those of a salt).

As usually defined, the melting point is the temperature, or range, at which the solid turns liquid.

A value given as a limit tells only on which side of the number the result lay.

In the case of `CCc1ccc2c(c1)C=Cc1cc(C)ccc1C2c1cn(-c2ccnc(N(C)CC(=O)O)n2)c(=O)[nH]c1=S` (stereo not drawn), the melting point amounted to 187 °C. For the compound `CC(=O)c1ccc(S(=O)(=O)Nc2ccon2)cc1`, the melting point fell in the range of 165 to 166 °C. In the case of `O=[N+]([O-])c1cn(CC(I)=C(I)I)c(Cl)c1Cl`, the melting point lay within 126 to 127 °C. The figure for `Cc1cc2nc(N)[nH]c(=O)c2[nH]1` is 252 to 254 °C. Compound `CCOC=Cc1ncnc2c1ncn2Cc1ccccc1` registered a melting point of 114 to 115 °C. The compound `Cc1ccccc1C(=O)Nc1ccc(C(=O)N2CCS(=O)(=O)c3ccccc32)cc1` gave a melting point of 219 to 220 °C.

For `Cc1cc(CC(=O)O)sc1C(=O)c1ccccc1`, the melting point amounted to 86 °C. The figure for `CCCCNC(=O)NS(=O)(=O)c1ccccc1CCl` is 104 to 106 °C. On to `CCOC(=O)C(=CNc1cccc(C2=NC(C)(C)Cc3cc(OC)c4c(c32)CC(C)(C)O4)c1)C(=O)OCC`, for which the melting point was in the range of 115 to 117 °C. As for `NC(=O)N1CCN(c2n[nH]c3ccccc23)CC1`, the figure is 158 to 160 °C. As for `O=C1C(=O)N(CCN2CCN(Cc3ccc(F)cc3)CC2)c2ccccc21`, the figure is 146 to 147 °C; as for `CCNc1nc(Cl)cc(NC2CC2)n1`, 86 to 88 °C; as for `COC(=O)c1ccc(I)c(O)c1`, 153 °C. The figure for `C[C@@H]1N=C(c2ccccc2Cl)c2cc([N+](=O)[O-])ccc2NC1=O` is 200 to 202 °C; for `CCOC(=O)c1ccc(C#CC(O)c2cc(C(C)(C)C)cc(C(C)(C)C)c2OC)cc1` (stereo not drawn) it is 101 to 103 °C. `Cc1ccc(-c2nn(-c3ccccc3C)c(N)c2C(N)=O)cc1` displayed a melting point of 133 to 135 °C. `CCOP(=O)(OCC)N1CC2(C(=O)OC)COc3cc(C(F)(F)F)ccc3C2=N1` (stereo not drawn) displayed a melting point of 85 to 86 °C. On to `O=C(c1ccccc1)c1ccccc1I`, for which the melting point lay within 29 to 31 °C.

For `CC(=O)SC1CC(=O)N1C(C(=O)OCc1ccc([N+](=O)[O-])cc1)=P(c1ccccc1)(c1ccccc1)c1ccccc1` (stereo not drawn), the melting point fell in the range of 154 to 155 °C. The compound `O=C1NC(=O)c2c1c(-c1ccc(CO)cc1)cc1[nH]c3ccc(O)cc3c21` registered a melting point of 266 to 271 °C. As for `CCCc1c(C(=O)C(C)C)c2ccc(C(=O)OC)cc2n1Cc1ccccc1C`, the figure is 99 to 102 °C; as for `O=C(Cc1c(F)cccc1C(=O)O)Nc1cccc(/C=C/c2nc(C3CCC3)cs2)c1`, 221 to 222 °C; as for `O=C(NCCc1ccccc1)Nc1ccc([N+](=O)[O-])cc1O`, 189 °C. The figure for `O=C1CCN=C(c2ccccc2Cl)c2ccccc21` is 135 to 137 °C; for `CCOC(=O)C1=C(C)Nc2nc(N3CCOCC3)nc(N3CCOCC3)c2C1c1ccc(Cl)cc1` (stereo not drawn) it is 128 °C; for `C=C(C(=O)c1cc(-c2cccs2)ccc1OC)c1ccc(C#N)cc1` it is 86 to 88 °C.

In turn, `CCNC(=O)Cc1cccc([N+](=O)[O-])c1` registered a melting point of 115 to 117 °C.

The compound `CC(C)COc1ccccc1-c1ccc(C(N)=O)c(=O)[nH]1` came in with a melting point of 180 °C. The figure for `Cc1cccc(C(=O)NCC2CC2)c1NC(=O)c1cc(C(F)(F)F)nn1-c1ncccc1Cl` is 199 °C; for `O[C@@H](CNCCOc1ccc2oc(-c3ccon3)cc2c1)COc1ccccc1C(F)(F)F` it is 90 to 91 °C; for `CCOC(=O)c1cn(C2COC2)c2c(C)c(F)c(F)cc2c1=O` it is 157 to 165 °C. Regarding `CCCCCCCC1=CC(=O)OC1(O)CNc1ccccc1` (stereo not drawn), the melting point fell in the range of 172 to 174 °C. The figure for `O=C1CCN(Cc2ccc(C(F)(F)F)cc2C(F)(F)F)CC1C(c1ccc(F)cc1)c1ccc(F)cc1` (stereo not drawn) is 104 to 105 °C; for `CC(C)(C)c1cc(-c2nnc(NS(C)(=O)=O)s2)cc(C(C)(C)C)c1O` it is 293 to 294 °C; for `CCC(C)NCc1nc(-c2ccc(OC)c(OC)c2)c2cc(OC)c(OC)cc2n1` (stereo not drawn) it is 118 to 120 °C.

Compound `O=S1NC(Cc2cc3ccccc3s2)=NO1` (stereo not drawn) returned a melting point of 127 to 129 °C.

On to `COc1ccc(C2C(C#N)=C(N)Oc3c2ccc2cccnc32)cc1OC` (stereo not drawn), for which the melting point is 118 to 120 °C.

As for `Cc1oc2c(C=Cc3c(Cl)cccc3Cl)cccc2c1C`, the melting point is 93 to 94 °C. Turning to `CN1CCC23c4c5ccc(O)c4OC2C(=NO)CCC3(O)C1C5` (stereo not drawn), the melting point is 270 to 271 °C. As for `O=C1CCC(N2C(=O)c3cccc(Nc4ccccc4)c3C2=O)C(=O)N1` (stereo not drawn), the figure is 214 to 216 °C; as for `Cn1cc2c(n1)-c1cnn(C)c1CC2(C)C`, 172 to 173 °C. As for `COc1ccccc1-n1c(-c2cc(-c3ccc(S(C)(=O)=O)cc3)c(N3CCOCC3)s2)nc2ccccc2c1=O`, the figure is 222 to 223 °C; as for `O=C(O)Cc1ccc(OCCNC(=O)C2Cc3ccccc3N2S(=O)(=O)c2ccc(-c3cccc(C(F)(F)F)c3)c(F)c2)cc1` (stereo not drawn), 82 °C; as for `CCCc1ccc(C(=O)Nc2ccc3c(c2)CCC3=O)cc1`, 181 to 184 °C. The figure for `COC(=O)c1c(-c2ccccc2C)c2cc(C)c(C)cc2[nH]c1=O` is 288 to 289 °C; for `COc1ccccc1-c1ccc(C)n1CC[C@H]1C[C@H](O)CC(=O)O1` (relative stereo) it is 112 to 114 °C. With `CC(=O)OCc1nc([N+](=O)[O-])cn1C`, the melting point fell in the range of 93 to 95 °C. `CCN(CC)C(=O)n1nc(NC)n(C)c1=O`: the melting point was in the range of 83 to 85 °C.

Regarding `C[Si](C)(C)c1ccc2c(c1)C(CN1CCCCC1)c1cc([Si](C)(C)C)ccc1-2`, the melting point lay within 107 to 108 °C. The compound `Cc1c2n(c3ccccc13)C(=O)C(Cc1cn(C)cn1)CC2` (stereo not drawn) displayed a melting point of 99 to 100 °C. As for `COC(=O)C(C(=O)OC)c1ccccc1COc1ccccc1C`, the figure is 99 to 103 °C; as for `COC(=O)Cn1c(=O)[nH]c2ccc(C(=O)c3c(C)c(OC)c4ccccn34)cc2c1=O`, 253 °C; as for `CSCCc1nc(OCC(F)(F)F)c(C#N)c(N2CCc3ccccc3CC2)n1`, 97 to 100 °C.

On to `COc1cc(CN2Cc3cc(OC)c(O)cc3CC2C)cc(OC)c1` (stereo not drawn), for which the melting point was in the range of 155 to 158 °C. As for `NCC(O)CN1CCN(C(c2ccc(F)cc2)c2ccc(F)cc2)CC1` (stereo not drawn), the figure is 45 to 47 °C; as for `Cc1cccc([N+](=O)[O-])c1CNc1cccn2c(C)c(C)nc12`, 160 to 162 °C. The figure for `C/C(O)=C(\C#N)C(=O)Sc1ccccc1` is 106 to 108 °C; for `Cc1ccc(Cn2ncnc2C(NS(=O)(=O)c2ccc(Cl)s2)C(C)C)cc1` (stereo not drawn) it is 124 to 125 °C.

Regarding `NC(=O)N(O)CCNC(=O)c1cc2ccccc2o1`, the melting point fell in the range of 181 to 182 °C.

`CS(=O)(=O)Oc1ccc(-c2c3ccccc3c(Cl)c3sc4ccccc4c23)cc1` returned a melting point of 155 to 158 °C.

Regarding `CC(C)=Cc1ccc(C(C)C(=O)O)cc1` (stereo not drawn), the melting point was 53 to 54 °C.

For `O=C1Nc2c(Cl)cc(Cl)cc2C12CCCC2`, the melting point was in the range of 175 to 176 °C. The figure for `C=C(C)CN1C(=O)CC(=O)N(c2ccccc2)c2cc(Cl)ccc21` is 149 to 151 °C; for `CCCN(CCC)S(=O)(=O)c1cc(C2=CCC(=O)O2)ccc1Cl` it is 118 to 121 °C. Compound `C=CCSc1cc(C(=O)O)cc(S(N)(=O)=O)c1-c1ccccc1` registered a melting point of 78 to 81 °C. The figure for `COC(=O)c1ccc(Cn2c(=O)c(C)c3sc(C(=O)NCc4ccc(OC)cc4)cn3c2=O)cc1` is 163 to 165 °C.

On to `O=C(O)c1cccc(CNc2n[nH]c3ncnc(Nc4cccc(Cl)c4)c23)c1`, for which the melting point is 294 to 296 °C. The figure for `COC(=O)c1cccc(C(=O)c2[nH]c3cc(Cl)ccc3c2NC(C)=O)c1` is 190 to 193 °C; for `CON(C)C(=O)NC(CSC(C)=O)Cc1ccccc1` (stereo not drawn) it is 68 to 70 °C. On to `COc1ccccc1COc1ccc(S(=O)(=O)c2ccc(C)nc2Nc2cc(OC)c(OC)cc2Cl)cc1`, for which the melting point lay within 149 to 151 °C. The figure for `O=C(NCCCCCNC(=O)c1ccc2c(c1)OCO2)c1ccc2c(c1)OCO2` is 158 to 160 °C; for `CC(C)(C)c1ccc(C(=O)CCC(=O)O)cc1` it is 117 to 120 °C. As for `CCCCNCCC(=O)Nc1ccc2c(c1)C(=O)c1cc(NC(=O)CCNCCCC)ccc1C2=O`, the figure is 168 °C. As for `CN1CCC(c2c[nH]c3cc(NC(=N)c4cccs4)ccc23)C1` (stereo not drawn), the figure is 89 to 91 °C; as for `CC(O)C(NCc1ccc([N+](=O)[O-])cc1)C(=O)O` (stereo not drawn), 142 to 143 °C. In the case of `Nc1cn(C2CCN(c3c(F)cc4c(=O)c(C(=O)O)cn(C5CC5)c4c3F)C2)nn1` (stereo not drawn), the melting point was found to be 221 °C. As for `c1cc(CC[C@H]2CNCCN2)ccn1`, the figure is 113 to 116 °C. Consider `Cc1nc(N(C)N)[nH]c(=O)c1CCO`, for which the melting point stood at 180 °C. Consider `CC#CCOc1cc(Cc2c(F)cccc2F)ncn1`, for which the melting point was 57.6 °C. On to `CC1(C)C(C(=O)O)C1C(O)C(F)(Cl)Cl` (stereo not drawn), for which the melting point is 142 °C. Compound `COC(=O)[C@H](O[Si](C)(C)C)[C@@H](O[Si](C)(C)C)C(=O)OC` registered a melting point of 75 °C. Compound `CS(=O)(=O)c1ccc(-c2c(-c3ccccc3)[nH]c3ccc(Cl)cc23)cc1` returned a melting point of 273 to 275 °C. As for `Cc1nc2c(N)nc(-c3ccncc3)nc2[nH]1`, the melting point is more than 310 °C. As for `Cn1c(COc2ccc(CC3SC(=O)NC3=O)cc2)nc2ccc(Oc3ccc(NC(=O)Nc4ccccc4)cc3)cc21` (stereo not drawn), the figure is 164 to 168 °C; as for `Cc1ccc(-c2nc(CCCCCCOC(C)(C)c3nnn[nH]3)c(C)o2)cc1`, 87 °C; as for `CC(=O)NC[C@H]1CN(c2ccc(N3CCC(=C(C#N)c4ccccn4)CC3)c(F)c2)C(=O)O1`, 265 to 267 °C. `N#CN=C(N)NCCCCNC(=O)[C@@H](Cc1ccccc1)NC(=O)CCCC(=O)O` gave a melting point of 63 °C. Compound `CCCCC(Cc1ccc(OCCN(CC)CC)cc1)(C(=O)NO)S(=O)(=O)c1ccc(OC)cc1` (stereo not drawn) had a melting point of 67 °C.
